Measured values published in patent US20200319201A1, “METHODS FOR MONITORING TUBERCULOSIS MEDICATION” (priority 2017, published 2020).

Assay: Liquid chromatography mass spectrometry analysis of fingerprint sweat samples for Tuberculosis medication and metabolite
Type: in vivo, human
Settings: for percentage of fingerprint samples in which detected: 75 samples; for number of fingerprint samples in which detected (of 25 fingerprints): 5 subjects who had finished a course of Isoniazid at least 72 hours previously
Description: All subjects from whom fingerprint samples were taken were human. Fingerprints were taken from the five fingers (i.e. the four fingers and the thumb) of each subject's right hand: • without the hand having been washed; or • after the hand has been washed with soap and water, and covered with a clean surgical glove for 10 minutes, without contacting any other surface.
The chromatography paper with fingerprint samples thereon were placed in a 2 ml Eppendorf microcentrifuge tube, following which an extraction solution (1.5 ml of 10% dichloromethane in methanol) was added. The tube was then centrifuged for 2 min (at 9.5 centrifugal force). The solvent extract was evaporated to dryness under a stream of nitrogen at room temperature (20° C.) and reconstituted in 100 μl mobile phase solution (95:5 water/acetonitrile+0.1% formic acid+iosotopically labelled internal standards) before being vortexed and transferred to a 300 μl glass micro-insert vial, with 5 μl being injected onto an LC-MS/MS system.
Chromatographic separation was performed on a Thermo Scientific™ Ultimate3000 UHPLC system equipped with a binary solvent manager, column manager and autosampler. The injection volume was 5 μL. Separation was performed on a Kinetex XB-C18 column (100×2.1 mm, 5 μm) operated at 30° C. at a flow rate of 0.25 ml/min. Mobile phase comprises 95% H2O (0.1% formic acid) and 5% acetonitrile (ACN) (0.1% formic acid).
The prepared samples were introduced to a Thermo Orbitrap Q-Exactive Plus mass spectrometer using the standard ESI interface with a capillary temperature of 320° C. and spray voltage 3 kV. Positive mass spectra were acquired in full scan mode within a range of m/z 50-500 at a mass resolution of 70 000 at m/z 200.

[1] = after washing hands using soap and water, same subjects as Example 1, isoniazid 300 mg (one 400 mg)
[2] = after washing hands using soap and water, same subjects as Example 1
[3] = hands not washed, approximately 3 hours after 300 mg isoniazid (one subject 400 mg), 15 subjects
[4] = hands not washed, approximately 3 hours after 300 mg isoniazid (one subject 400 mg)
[5] = hands washed using soap and water
[6] = sample obtained 2 hours after the subject had taken Isoniazid
[7] = sample obtained 72 hours after the subject had taken Isoniazid

Structure (SMILES) | number of fingerprint samples in which detected (out of the 75 fingerprint samples) [1] | percentage of fingerprint samples in which detected [2] | number of fingerprint samples in which detected (of 25 fingerprints) (hands not washed) | number of fingerprint samples in which detected (out of the 75 fingerprint samples) [3] | percentage of fingerprint samples in which detected [4] | number of fingerprint samples in which detected (of 25 fingerprints) [5] | presence in fingerprint sweat sample [6] | presence in fingerprint sweat sample [7] | presence in fingerprint sample (approximately 3 hours after 1,000 mg pyrazinamide, hands washed)
CC(=O)NNC(=O)c1ccncc1 [Acetylisoniazid] | 72 | 96% | 0 | 73 | 97% | 0 | shows the presence | does not show the presence | –
NNC(=O)c1ccncc1 [Isoniazid] | 40 | 53% | 0 | 51 | 68% | 0 | shows the presence | does not show the presence | –
NC(=O)c1cnccn1 [pyrazinamide, Pyrazinamide] | – | – | – | – | – | – | – | – | presence of pyrazinamide is evidenced
